Data taken from the CheMixHub viscosity set.
Several values for one entry are separate records, joined by “and”; a condition that tells them apart may be missing. Identical values can stand only once.

Assay: xn = mol fraction of the nth substance listed

[2H]O[2H] + Cc1cccnc1
viscosity [mPa·s], 101 kPa
Details | x2 = 0.0233 | x2 = 0.05084 | x2 = 0.08428 | x2 = 0.1255
297.15 K | 1.471 | 1.954 | 2.315 | 2.706
298.15 K | 1.433 | 1.899 | 2.249 | 2.627
299.15 K | 1.389 | 1.846 | 2.189 | 2.558
300.15 K | 1.355 | 1.794 | 2.122 | 2.483
301.15 K | 1.32 | 1.751 | 2.059 | 2.401
302.15 K | 1.284 | 1.7 | 1.999 | 2.33
303.15 K | 1.254 | 1.656 | 1.949 | 2.267
304.15 K | 1.225 | 1.615 | 1.893 | 2.2
305.15 K | 1.191 | 1.578 | 1.843 | 2.14
306.15 K | 1.165 | 1.538 | 1.793 | 2.083
307.15 K | 1.136 | 1.502 | 1.751 | 2.033
308.15 K | 1.104 | 1.467 | 1.708 | 1.981
309.15 K | 1.082 | 1.434 | 1.665 | 1.932
310.15 K | 1.055 | 1.404 | 1.631 | 1.889
311.15 K | 1.034 | 1.371 | 1.589 | 1.841
312.15 K | 1.007 | 1.344 | 1.555 | 1.804
313.15 K | 0.984 | 1.32 | 1.522 | 1.765

C=CC#N + ClC(Cl)(Cl)Cl
viscosity [mPa·s], 101 kPa
Details | 293.15 K | 298.15 K | 303.15 K | 313.15 K | 323.15 K
x1 = 0.007 | 0.988 | 0.911 | 0.847 | 0.749 | 0.671
x1 = 0.028 | 0.979 | 0.903 | 0.841 | 0.772 | 0.695
x1 = 0.126 | 0.853 | 0.783 | 0.721 | 0.661 | 0.616

C[N+](CCO)(CCO)CCO.[Cl-] + NC(N)=O
100 kPa, x1 = 0.5
Details | viscosity [mPa·s]
293.15 K | 6026
298.15 K | 3662
303.15 K | 2352
308.15 K | 1540
313.15 K | 1026
318.15 K | 717
323.15 K | 505

CC(=O)[O-].CCCC[NH3+] + O
Details | viscosity [mPa·s]
293.15 K, 101 kPa, x1 = 0.4013 | 53.35

CC(C)[C@H](N)C(=O)O + O
101 kPa
Details | viscosity
293.15 K, x1 = 0.005375 | 1.137 mPa·s
293.15 K, x1 = 0.007154 | 1.185 mPa·s
293.15 K, x1 = 0.008925 | 1.236 mPa·s
298.15 K, x1 = 0.0001 | 0.9194 mPa·s and 0.9194 mPa·s
298.15 K, x1 = 0.0004318 | 0.9217 mPa·s and 0.9217 mPa·s
298.15 K, x1 = 0.00045 | 0.8955 mPa·s
298.15 K, x1 = 0.0006308 | 0.9343 mPa·s and 0.9343 mPa·s
298.15 K, x1 = 0.0009 | 0.9038 mPa·s
298.15 K, x1 = 0.001048 | 0.9493 mPa·s and 0.9493 mPa·s
298.15 K, x1 = 0.00135 | 0.9129 mPa·s
298.15 K, x1 = 0.001416 | 0.9595 mPa·s and 0.9595 mPa·s
298.15 K, x1 = 0.001787 | 0.9689 mPa·s and 0.9689 mPa·s
298.15 K, x1 = 0.0018 | 0.9222 mPa·s
298.15 K, x1 = 0.002245 | 0.9318 mPa·s
298.15 K, x1 = 0.002695 | 0.9413 mPa·s
298.15 K, x1 = 0.003711 | 0.9967 mPa·s and 0.9967 mPa·s
298.15 K, x1 = 0.005362 | 1.026 mPa·s and 1.026 mPa·s
298.15 K, x1 = 0.007185 | 1.05 mPa·s and 1.05 mPa·s
303.15 K, x1 = 0.0004 | 0.803 mPa·s
303.15 K, x1 = 0.00045 | 0.8023 mPa·s
303.15 K, x1 = 0.0007 | 0.808 mPa·s
303.15 K, x1 = 0.0009 | 0.8101 mPa·s
303.15 K, x1 = 0.001 | 0.814 mPa·s and 0.821 mPa·s
303.15 K, x1 = 0.00135 | 0.8187 mPa·s
303.15 K, x1 = 0.0018 | 0.8274 mPa·s
303.15 K, x1 = 0.002245 | 0.8364 mPa·s
303.15 K, x1 = 0.002695 | 0.8456 mPa·s
303.15 K, x1 = 0.003592 | 0.861 mPa·s
303.15 K, x1 = 0.005375 | 0.8951 mPa·s
303.15 K, x1 = 0.007154 | 0.9297 mPa·s
303.15 K, x1 = 0.008925 | 0.9658 mPa·s
308.15 K, x1 = 0.0001 | 0.7889 mPa·s and 0.7889 mPa·s
308.15 K, x1 = 0.0004318 | 0.7978 mPa·s and 0.7978 mPa·s
308.15 K, x1 = 0.00045 | 0.7239 mPa·s
308.15 K, x1 = 0.0006308 | 0.8045 mPa·s and 0.8045 mPa·s
308.15 K, x1 = 0.001048 | 0.8147 mPa·s and 0.8147 mPa·s
308.15 K, x1 = 0.00135 | 0.7396 mPa·s
308.15 K, x1 = 0.001416 | 0.8249 mPa·s and 0.8249 mPa·s
308.15 K, x1 = 0.001787 | 0.8389 mPa·s and 0.8389 mPa·s
308.15 K, x1 = 0.0018 | 0.7478 mPa·s
308.15 K, x1 = 0.002245 | 0.7561 mPa·s
308.15 K, x1 = 0.002695 | 0.7648 mPa·s
308.15 K, x1 = 0.003711 | 0.8751 mPa·s and 0.8751 mPa·s
308.15 K, x1 = 0.005362 | 0.9003 mPa·s and 0.9003 mPa·s
308.15 K, x1 = 0.007185 | 0.9207 mPa·s and 0.9207 mPa·s
313.15 K, x1 = 0.00045 | 0.6573 mPa·s
313.15 K, x1 = 0.0009 | 0.6645 mPa·s
313.15 K, x1 = 0.00135 | 0.6722 mPa·s
313.15 K, x1 = 0.0018 | 0.6799 mPa·s
313.15 K, x1 = 0.001804 | 0.6773 mPa·s
313.15 K, x1 = 0.002245 | 0.6878 mPa·s
313.15 K, x1 = 0.002695 | 0.696 mPa·s
313.15 K, x1 = 0.003592 | 0.7008 mPa·s
313.15 K, x1 = 0.005375 | 0.7269 mPa·s
313.15 K, x1 = 0.007154 | 0.752 mPa·s
318.15 K, x1 = 0.0001 | 0.6823 mPa·s and 0.6823 mPa·s
318.15 K, x1 = 0.0004318 | 0.6985 mPa·s and 0.6985 mPa·s
318.15 K, x1 = 0.00045 | 0.6017 mPa·s
318.15 K, x1 = 0.0006308 | 0.7009 mPa·s and 0.7009 mPa·s
318.15 K, x1 = 0.001048 | 0.7128 mPa·s and 0.7128 mPa·s
318.15 K, x1 = 0.00135 | 0.6159 mPa·s
318.15 K, x1 = 0.001416 | 0.7308 mPa·s and 0.7308 mPa·s
318.15 K, x1 = 0.001787 | 0.7418 mPa·s and 0.7418 mPa·s
318.15 K, x1 = 0.0018 | 0.6233 mPa·s
318.15 K, x1 = 0.002245 | 0.631 mPa·s
318.15 K, x1 = 0.002695 | 0.6386 mPa·s
318.15 K, x1 = 0.003711 | 0.7743 mPa·s and 0.7743 mPa·s
318.15 K, x1 = 0.005362 | 0.7995 mPa·s and 0.7995 mPa·s
318.15 K, x1 = 0.007185 | 0.8105 mPa·s and 0.8105 mPa·s
323.15 K, x1 = 0.001804 | 0.5656 mPa·s
323.15 K, x1 = 0.003592 | 0.5841 mPa·s
323.15 K, x1 = 0.008925 | 0.6454 mPa·s

CCC(C)(C)O + O
298.15 K, 101 kPa
Details | viscosity [mPa·s]
x2 = 0.0042 | 3.548
x2 = 0.0429 | 3.711
x2 = 0.0863 | 3.875
x2 = 0.124 | 3.987
x2 = 0.1654 | 4.122
x2 = 0.197 | 4.218
x2 = 0.214 | 4.269
x2 = 0.2583 | 4.388
x2 = 0.2775 | 4.443

Cn1cc[n+](CCC[n+]2ccccc2)c1.[Br-].[Br-] + O
viscosity [mPa·s], 101 kPa
Details | 293.15 K | 298.15 K | 303.15 K | 308.15 K | 313.15 K
x1 = 0.0003405 | 1.016 | 0.905 | 0.811 | 0.734 | 0.667
x1 = 0.0004322 | 1.019 | 0.907 | 0.814 | 0.737 | 0.669
x1 = 0.0005421 | 1.021 | 0.909 | 0.816 | 0.739 | 0.672
x1 = 0.000689 | 1.023 | 0.911 | 0.819 | 0.742 | 0.675
x1 = 0.0008251 | 1.032 | 0.918 | 0.827 | 0.744 | 0.678
x1 = 0.0009589 | 1.035 | 0.921 | 0.829 | 0.747 | 0.681
x1 = 0.001109 | 1.038 | 0.924 | 0.832 | 0.749 | 0.684
x1 = 0.00128 | 1.041 | 0.927 | 0.835 | 0.752 | 0.687
x1 = 0.001457 | 1.043 | 0.93 | 0.837 | 0.755 | 0.689
x1 = 0.001664 | 1.047 | 0.933 | 0.839 | 0.758 | 0.691
x1 = 0.001904 | 1.05 | 0.936 | 0.841 | 0.761 | 0.693
x1 = 0.002122 | 1.053 | 0.939 | 0.843 | 0.763 | 0.696
x1 = 0.002357 | 1.057 | 0.942 | 0.846 | 0.766 | 0.699
